In the supplement of paper PMC11061612:

How the values were obtained:
[1] = compound: Cc1cc2ncnn2cc1Nc1ncc2c(n1)n(C1CCOCC1)c(=O)n2C [AZD7648]; details: max 10 µM
Method in brief: (§1)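 After 24 hours at 37°C and 5% CO2 in 1536-well plates holding 7.5 μl of DMEM/F12 or RPMI with 10% FBS, cancer cell lines were dosed for 72 hours, with final DMSO typically 0.2%. Viability came from CellTiter-Glo 2.0 luminescence, scaled between the means of blank wells and DMSO wells. A non-linear mixed effects model fitted a two-parameter logistic curve to each dose response to give the single-agent IC50.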

[2] = compound: Cc1c2c(nn1C)CSCc1cc(n(C)n1)CSc1cc(c3ccccc3c1)OCCCc1c(C(=O)O)n(C)c3c-2c(Cl)ccc13 [AZD5991]; details: max 1 µM
Method in brief: as §1

[3] = compound: O=C(c1cc(Cc2n[nH]c(=O)c3ccccc23)ccc1F)N1CCN(C(=O)C2CC2)CC1 [Olaparib]; details: max 10 µM
Method in brief: as §1

[4] = compound: CC1=C(C(=CC=C1)Cl)NC(=O)C2=CN=C(S2)NC3=CC(=NC(=N3)C)N4CCN(CC4)CCO [Dasatinib]; details: max 2 µM
Method in brief: as §1

[5] = compound: CC1(C)CCC(CN2CCN(c3ccc(C(=O)NS(=O)(=O)c4ccc(NCC5CCOCC5)c([N+](=O)[O-])c4)c(Oc4cnc5[nH]ccc5c4)c3)CC2)=C(c2ccc(Cl)cc2)C1 [Venetoclax]; details: max 1 µM
Method in brief: as §1

[6] = compound: C=CCn1c(=O)c2cnc(Nc3ccc(N4CCN(C)CC4)cc3)nc2n1-c1cccc(C(C)(C)O)n1 [AZD1775]; details: max 3 µM
Method in brief: as §1

[7] = compound: CC(=O)Nc1cccc(-n2c(=O)n(C3CC3)c(=O)c3c(Nc4ccc(I)cc4F)n(C)c(=O)c(C)c32)c1 [Trametinib]; details: max 1 µM
Method in brief: as §1

[8] = compound: C[C@@H]1COCCN1C2=NC(=NC(=C2)C3(CC3)[S@](=N)(=O)C)C4=C5C=CNC5=NC=C4 [AZD6738]; details: max 10 µM
Method in brief: as §1

[9] = compound: C[C@@H](Nc1cc(F)cc(F)c1)c1cc(C(=O)N(C)C)cc2c(=O)cc(N3CCOCC3)oc12 [AZD8186]
Method in brief: as §1

[10] = compound: CCN(CCO)CCCOc1ccc2c(Nc3cc(CC(=O)Nc4cccc(F)c4)[nH]n3)ncnc2c1 [AZD2811]; details: max 1 µM
Method in brief: as §1

[11] = compound: COc1cc(Nc2ncc3c(n2)-c2ccc(Cl)cc2C(c2c(F)cccc2OC)=NC3)ccc1C(=O)O [Alisertib]; details: max 10 µM
Method in brief: as §1

[12] = compound: CC(=O)c1c(C)c2cnc(Nc3ccc(N4CCNCC4)cn3)nc2n(C2CCCC2)c1=O [Palbociclib]; details: max 10 µM
Method in brief: as §1

[13] = compound: C1CN(CCC1(C(=O)N[C@@H](CCO)C2=CC=C(C=C2)Cl)N)C3=NC=NC4=C3C=CN4 [Capivasertib]; details: max 10 µM
Method in brief: as §1

[14] = compound: CCc1c2c(nc3ccc(O)cc13)-c1cc3c(c(=O)n1C2)COC(=O)[C@]3(O)CC [SN-38]; details: max 0.3 µM
Method in brief: as §1

[15] = compound: C[C@@H](Oc1cc(-c2cnn(C3CCNCC3)c2)cnc1N)c1c(Cl)ccc(F)c1Cl [Crizotinib]; details: max 10 µM
Method in brief: as §1

[16] = compound: Cc1nc(-c2cn3c(n2)-c2ccc(-c4cnn(C(C)(C)C(N)=O)c4)cc2OCC3)n(C(C)C)n1 [Taselisib]; details: max 10 µM
Method in brief: as §1

[17] = compound: CC1=CN2[C@@H](C1)C=NC3=CC(=C(C=C3C2=O)OC)OCCCCCOC4=C(C=C5C(=C4)N=C[C@@H]6CC(=CN6C5=O)C)OC [SG3199]; details: max 0.001 µM
Method in brief: as §1

[18] = compound: Cn1cnc2c(F)c(Nc3ccc(Br)cc3Cl)c(C(=O)NOCCO)cc21 [Selumetinib]; details: max 10 µM
Method in brief: as §1

[19] = compound: CC(C)n1c(=O)n(C)c2cnc3cc(F)c(-c4ccc(OCCCN5CCCCC5)nc4)cc3c21 [AZD1390]; details: max 0.3 µM
Method in brief: as §1

[20] = compound: CN(C)CCCOc1ccc(-c2ccc3ncc4c(c3c2)n(C2CCOCC2)c(=O)n4C)cn1 [AZD0156]; details: max 3 µM
Method in brief: as §1

[21] = compound: COc1nnc2ccc(N3CCC(c4ccc(OCCN5CCN(C)C(=O)[C@H]5C)cc4)CC3)nn12 [AZD5153]; details: max 1 µM
Method in brief: as §1

[22] = compound: COc1cc2ncnc(Nc3ccc(F)c(Cl)c3)c2cc1OCCCN1CCOCC1 [Gefitinib]; details: max 10 µM
Method in brief: as §1

[23] = compound: CS(=O)(=O)CCNCc1ccc(-c2ccc3ncnc(Nc4ccc(OCc5cccc(F)c5)c(Cl)c4)c3c2)o1 [Lapatinib]; details: max 10 µM
Method in brief: as §1

[24] = compound: C[C@@H](c1ccc2nccn2c1)n1nnc2ncc(-c3cnn(C)c3)nc21 [Savolitinib]; details: max 1 µM
Method in brief: as §1

[25] = compound: COc1cccc2c1C(=O)c1c(O)c3c(c(O)c1C2=O)C[C@@](O)(C(=O)CO)C[C@@H]3O[C@H]1C[C@H](N)[C@H](O)[C@H](C)O1 [Doxorubicin]; details: max 1 µM
Method in brief: as §1

[26] = compound: CN(CC[C@H](CSC1=CC=CC=C1)NC2=C(C=C(C=C2)S(=O)(=O)NC(=O)C3=CC=C(C=C3)N4CCC(CC4)[C@H](C5=CC=CC=C5C6=CC=C(C=C6)Cl)O)S(=O)(=O)C(F)(F)F)CCO [AZD4320]; details: max 1 µM
Method in brief: as §1

[27] = compound: COc1cccc(OCCCN)c1-c1cc(Nc2cnc(C#N)cn2)n[nH]1 [Prexasertib]; details: max 1 µM
Method in brief: as §1

[28] = compound: O=C(Nc1ccc2[nH]nc(-c3ccncc3)c2c1)[C@@H]1CCN(CC(=O)N2CCN(c3ccc(-c4ncccn4)cc3)CC2)C1; details: max 5 µM
Method in brief: as §1

[29] = compound: NC1(c2ccc(-c3nc4ccn5c(=O)[nH]nc5c4cc3-c3ccccc3)cc2)CCC1 [MK-2206]; details: max 10 µM
Method in brief: as §1

[30] = compound: COc1cc([C@@H]2c3cc4c(cc3[C@@H](O[C@@H]3O[C@@H]5CO[C@@H](C)O[C@H]5[C@H](O)[C@H]3O)[C@H]3COC(=O)[C@H]23)OCO4)cc(OC)c1O [Etoposide]; details: max 10 µM
Method in brief: as §1

[31] = compound: Nc1ccn([C@@H]2O[C@H](CO)[C@@H](O)C2(F)F)c(=O)n1 [Gemcitabine]; details: max 0.3 µM
Method in brief: as §1

[32] = compound: O=c1[nH]cc(F)c(=O)[nH]1 [5-Fluorouracil]; details: max 20 µM
Method in brief: as §1

[33] = compound: C1CN(CCC1(C(=O)N[C@@H](CCO)C2=CC=C(C=C2)Cl)N)C3=NC=NC4=C3C=CN4 [AZD5363]; details: max 10 µM
Method in brief: as §1

[34] = compound: N#Cc1cnc(Nc2cc(NC[C@H]3CNCCO3)c(C(F)(F)F)cn2)cn1 [SRA737]; details: max 10 µM
Method in brief: as §1

[35] = compound: CC(=O)O[C@H]1C(=O)[C@@]2(C)[C@H]([C@H](OC(=O)c3ccccc3)[C@]3(O)C[C@H](OC(=O)[C@H](O)[C@@H](NC(=O)c4ccccc4)c4ccccc4)C(C)=C1C3(C)C)[C@]1(OC(C)=O)CO[C@@H]1C[C@@H]2O [Paclitaxel]; details: max 3 µM
Method in brief: as §1

[36] = compound: C1CC(C1)(C(=O)[O-])C(=O)[O-].N.N.[Pt+2] [Carboplatin]; details: max 10 µM
Method in brief: as §1

Cell Line	IC50, cell viability 72 h [1] [µM]	IC50, cell viability 72 h [2] [µM]	IC50, cell viability 72 h [3] [µM]	IC50, cell viability 72 h [4] [µM]	IC50, cell viability 72 h [5] [µM]	IC50, cell viability 72 h [6] [µM]	IC50, cell viability 72 h [7] [µM]	IC50, cell viability 72 h [8] [µM]	IC50, cell viability 72 h ([9]; max 3 µM) [µM]	IC50, cell viability 72 h [10] [µM]	IC50, cell viability 72 h [11] [µM]	IC50, cell viability 72 h [12] [µM]	IC50, cell viability 72 h [13] [µM]	IC50, cell viability 72 h [14] [µM]	IC50, cell viability 72 h [15] [µM]	IC50, cell viability 72 h [16] [µM]	IC50, cell viability 72 h [17] [µM]	IC50, cell viability 72 h [18] [µM]	IC50, cell viability 72 h [19] [µM]	IC50, cell viability 72 h [20] [µM]	IC50, cell viability 72 h [21] [µM]	IC50, cell viability 72 h [22] [µM]	IC50, cell viability 72 h [23] [µM]	IC50, cell viability 72 h [24] [µM]	IC50, cell viability 72 h [25] [µM]	IC50, cell viability 72 h [26] [µM]	IC50, cell viability 72 h [27] [µM]	IC50, cell viability 72 h [28] [µM]	IC50, cell viability 72 h [29] [µM]	IC50, cell viability 72 h [30] [µM]	IC50, cell viability 72 h ([9]; max 10 µM) [µM]	IC50, cell viability 72 h [31] [µM]	IC50, cell viability 72 h [32] [µM]	IC50, cell viability 72 h [33] [µM]	IC50, cell viability 72 h [34] [µM]	IC50, cell viability 72 h [35] [µM]	IC50, cell viability 72 h [36] [µM]
SW626 (Colorectal Carcinoma)	> 10	> 1	> 10	> 2	> 1	1.49	0.111	> 10	> 3	> 1	> 10	> 10	> 10	> 0.3	> 10	> 10	> 0.001	2.81	> 0.3	> 3	0.15	> 10	> 10	> 1	> 1	> 1	0.127	–	–	–	–	–	–	–	–	–	–
SW1271 (Small Cell Lung Carcinoma)	> 10	> 1	> 10	> 2	> 1	1.97	0.614	> 10	–	> 1	> 10	> 10	–	0.143	> 10	> 10	> 0.001	> 10	> 0.3	> 3	0.947	> 10	> 10	> 1	> 1	> 1	0.137	> 5	> 10	> 10	> 10	> 0.3	> 20	> 10	> 10	0.63	> 10
TE-4 (Esophageal Squamous Cell Carcinoma)	> 10	> 1	> 10	> 2	> 1	1.02	0.125	> 10	> 3	> 1	> 10	> 10	2.91	> 0.3	> 10	0.381	> 0.001	> 10	> 0.3	> 3	> 1	0.99	0.264	> 1	> 1	> 1	0.334	–	–	–	–	–	–	–	–	–	–
